The values that follow are results of earlier work, collected in patent US20040067252A1, “Novel modified release formulation” (priority 2001, published 2004).

The conditions of this series: at 25° C.

Converted amounts (≈) assume the structure as drawn.

Regarding `Cn1c(=O)c2[nH]cnc2n(C)c1=O` [theophylline], the water solubility was 8300 µg/mL (≈ 46.1 mM).
